Results as given in PubChem BioAssay AID2060496 (Molecular Pharmacology Branch, DTP, NCI, 2025).
Each block holds one compound with its values, some of them ahead of it.

System: 276233-004-R-J1-PDC complex spheroid viability
Test: Anticancer human tumor 276233-004-R-J1-PDC patient-derived colon adenocarcinoma cell line growth inhibition [GQUAD]
Settings: for IC50: curve of first compound; for viability, T/C: stronger effect = lower value
How it was run: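 Viability of tumor cells grown as complex spheroids with endothelial and stromal cells, exposed to drug combinations. Top concentration at or near clinical Cmax (else 10 microM), diluted in half-log increments.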

[1] = second compound 0.0316 µM, first compound 0.0316 µM
[2] = second compound 0.0316 µM, first compound 0.1 µM
[3] = second compound 0.0316 µM, first compound 0.316 µM
[4] = second compound 0.0316 µM, first compound 1 µM
[5] = second compound 0.0316 µM, first compound 3.16 µM
[6] = second compound 0.0316 µM, first compound 10 µM
[7] = second compound 0.1 µM, first compound 0.0316 µM
[8] = second compound 0.1 µM, first compound 0.1 µM
[9] = second compound 0.1 µM, first compound 0.316 µM
[10] = second compound 0.1 µM, first compound 1 µM
[11] = second compound 0.1 µM, first compound 3.16 µM
[12] = second compound 0.1 µM, first compound 10 µM
[13] = second compound 0.316 µM, first compound 0.0316 µM
[14] = second compound 0.316 µM, first compound 0.1 µM
[15] = second compound 0.316 µM, first compound 0.316 µM
[16] = second compound 0.316 µM, first compound 1 µM
[17] = second compound 0.316 µM, first compound 3.16 µM
[18] = second compound 0.316 µM, first compound 10 µM
[19] = second compound 1 µM, first compound 0.0316 µM
[20] = second compound 1 µM, first compound 0.1 µM
[21] = second compound 1 µM, first compound 0.316 µM
[22] = second compound 1 µM, first compound 1 µM
[23] = second compound 1 µM, first compound 3.16 µM
[24] = second compound 1 µM, first compound 10 µM
[25] = second compound 3.16 µM, first compound 0.0316 µM
[26] = second compound 3.16 µM, first compound 0.1 µM
[27] = second compound 3.16 µM, first compound 0.316 µM
[28] = second compound 3.16 µM, first compound 1 µM
[29] = second compound 3.16 µM, first compound 3.16 µM
[30] = second compound 3.16 µM, first compound 10 µM
[31] = second compound 10 µM, first compound 0.0316 µM
[32] = second compound 10 µM, first compound 0.1 µM
[33] = second compound 10 µM, first compound 0.316 µM
[34] = second compound 10 µM, first compound 1 µM
[35] = second compound 10 µM, first compound 3.16 µM
[36] = second compound 10 µM, first compound 10 µM
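Note: spheroids exposed to drugs for seven days.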
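Throughout, for viability, T/C: 100% = DMSO vehicle control viability.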

Compound: CC(C)(O)C1CCC(Nc2ccc3ncc(-c4cccc(C(F)(F)F)c4)n3n2)CC1 (stereo unspecified) + CN(C)c1ccc(Nc2c3ccc(NC(=O)CCN4CCCC4)cc3nc3cc(NC(=O)CCN4CCCC4)ccc23)cc1
IC50 (second compound 0.0316 µM): > 10 µM | IC50 (second compound 0.1 µM): 2.55 µM | IC50 (second compound 0.316 µM): > 10 µM | IC50 (second compound 1 µM): 1.06 µM | IC50 (second compound 3.16 µM): 0.101 µM | IC50 (second compound 10 µM): < 0.0316 µM | viability, T/C [1]: 90.4% | viability, T/C [2]: 84.4% | viability, T/C [3]: 55.8% | viability, T/C [4]: 84% | viability, T/C [5]: 48.6% | viability, T/C [6]: 57% | viability, T/C [7]: 82.6% | viability, T/C [8]: 69.2% | viability, T/C [9]: 62.7% | viability, T/C [10]: 57.4% | viability, T/C [11]: 45.2% | viability, T/C [12]: 46% | viability, T/C [13]: 55.9% | viability, T/C [14]: 55.4% | viability, T/C [15]: 50.2% | viability, T/C [16]: 57.1% | viability, T/C [17]: 55% | viability, T/C [18]: 46.6% | viability, T/C [19]: 75% | viability, T/C [20]: 56.3% | viability, T/C [21]: 54.4% | viability, T/C [22]: 56.3% | viability, T/C [23]: 50.2% | viability, T/C [24]: 41% | viability, T/C [25]: 67.5% | viability, T/C [26]: 45.4% | viability, T/C [27]: 51.3% | viability, T/C [28]: 39% | viability, T/C [29]: 46.8% | viability, T/C [30]: 34% | viability, T/C [31]: 46.3% | viability, T/C [32]: 43.4% | viability, T/C [33]: 41.8% | viability, T/C [34]: 35.5% | viability, T/C [35]: 41% | viability, T/C [36]: 22.4%

IC50 (second compound 0.0316 µM): > 10 µM | IC50 (second compound 0.1 µM): > 10 µM | IC50 (second compound 0.316 µM): > 10 µM | IC50 (second compound 1 µM): > 10 µM | IC50 (second compound 3.16 µM): 5.9 µM | IC50 (second compound 10 µM): > 10 µM
Compound: CC1COCCN1c1cc(C2(S(C)(=N)=O)CC2)nc(-c2ccnc3[nH]ccc23)n1 (stereo unspecified) + Cc1cnc(CNC(=O)c2c(=O)c3ccc(N4CCCN(C)CC4)nc3n3c2sc2ccccc23)cn1
viability, T/C [1]: 99% | viability, T/C [2]: 72.1% | viability, T/C [3]: 90.8% | viability, T/C [4]: 77.4% | viability, T/C [5]: 75.3% | viability, T/C [6]: 60.2% | viability, T/C [7]: 82% | viability, T/C [8]: 76.5% | viability, T/C [9]: 76% | viability, T/C [10]: 92.6% | viability, T/C [11]: 80.2% | viability, T/C [12]: 64.5% | viability, T/C [13]: 75.2% | viability, T/C [14]: 87.8% | viability, T/C [15]: 83.5% | viability, T/C [16]: 78.2% | viability, T/C [17]: 79.1% | viability, T/C [18]: 58.6% | viability, T/C [19]: 75.8% | viability, T/C [20]: 72.3% | viability, T/C [21]: 72.9% | viability, T/C [22]: 58.7% | viability, T/C [23]: 70.9% | viability, T/C [24]: 53% | viability, T/C [25]: 64.5% | viability, T/C [26]: 67.6% | viability, T/C [27]: 75.4% | viability, T/C [28]: 69.3% | viability, T/C [29]: 57% | viability, T/C [30]: 41.9% | viability, T/C [31]: 63.3% | viability, T/C [32]: 66% | viability, T/C [33]: 73% | viability, T/C [34]: 58.8% | viability, T/C [35]: 65% | viability, T/C [36]: 42.8%

IC50 (second compound 0.0316 µM): 9.69 µM | IC50 (second compound 0.1 µM): 6.82 µM | IC50 (second compound 0.316 µM): 3.53 µM | IC50 (second compound 1 µM): 2.33 µM | IC50 (second compound 3.16 µM): 2.16 µM | IC50 (second compound 10 µM): 2.03 µM
Compound: COc1cccc2c1C(=O)c1c(O)c3c(c(O)c1C2=O)CC(O)(C(=O)CO)CC3OC1CC(N)C(O)C(C)O1 (stereo unspecified) + Cc1cnc(CNC(=O)c2c(=O)c3ccc(N4CCCN(C)CC4)nc3n3c2sc2ccccc23)cn1
viability, T/C [1]: 81.5% | viability, T/C [2]: 87.3% | viability, T/C [3]: 86% | viability, T/C [4]: 67.1% | viability, T/C [5]: 79.6% | viability, T/C [6]: 48.6% | viability, T/C [7]: 79% | viability, T/C [8]: 94.9% | viability, T/C [9]: 72.2% | viability, T/C [10]: 87.9% | viability, T/C [11]: 66.3% | viability, T/C [12]: 41.9% | viability, T/C [13]: 80.4% | viability, T/C [14]: 92.3% | viability, T/C [15]: 87.2% | viability, T/C [16]: 78.3% | viability, T/C [17]: 51.8% | viability, T/C [18]: 35% | viability, T/C [19]: 78% | viability, T/C [20]: 95.8% | viability, T/C [21]: 83.1% | viability, T/C [22]: 73% | viability, T/C [23]: 41.8% | viability, T/C [24]: 24.4% | viability, T/C [25]: 78.1% | viability, T/C [26]: 78.8% | viability, T/C [27]: 77.4% | viability, T/C [28]: 60.4% | viability, T/C [29]: 44.5% | viability, T/C [30]: 13% | viability, T/C [31]: 73.2% | viability, T/C [32]: 60.6% | viability, T/C [33]: 64.5% | viability, T/C [34]: 69% | viability, T/C [35]: 39.4% | viability, T/C [36]: 13.5%
